# Assay results: patent publication US20110105623A1 (Biogenic Innovations, LLC, priority 2009, published 2011)
# “And” between values parts separate entries of the source, which are not always exact repeats. Identical values can stand only once.
# System: Lactobacillus acidophilus
# Experiment: Recovery from Acidophilus milk fortified with MSM into broth without MSM
# Assay type: cell-based
# Details: for Recovery of Lactobacillus acidophilus in Milk fortified with MSM Day 14, initial start data: Day 14-0; for Lag Recovery of Lactobacillus acidophilus in Milk fortified with MSM Day 14 / Lag Recovery of Lactobacillus acidophilus in Milk fortified with MSM Day 21 / Lag Recovery of Lactobacillus acidophilus in Milk fortified with MSM Day 28 / Lag Recovery of Lactobacillus acidophilus in Milk fortified with MSM Day 7: duplicates; for Lag Recovery of Lactobacillus acidophilus in Milk fortified with MSM Day 7: 5% MSM
# Method: The Acidophilus milk was low fat (Darigold). […] All preparations and plating was conducted at room temperature.
# The recovery study was run parallel to the study done on the affects of MSM on growth of Lactobacillus acidophilus in Acidophilus milk fortified with MSM. The recovery growth rate was analyzed on Day 7, Day 14, Day 21 and Day 28. For Table 27, the growth for Day x with no time is calculated from the initial growth study with the dilution factor into the log growth. […] Table 28 takes the value of 2.00 as the starting value.
substance,measurement,setting,value
Methylsulfonylmethane [MSM],"Recovery of Lactobacillus acidophilus in Milk fortified with MSM Day 7, initial start data",0.5% MSM,8.68 logs
same,"Recovery of Lactobacillus acidophilus in Milk fortified with MSM Day 7, average recovery","0.5% MSM, Day 7-24",12.94 logs
same,"Recovery of Lactobacillus acidophilus in Milk fortified with MSM Day 7, average recovery","0.5% MSM, Day 7-48",12.69 logs
same,"Recovery of Lactobacillus acidophilus in Milk fortified with MSM Day 7, average recovery","0.5% MSM, Day 7-72",13.07 logs
same,"Recovery of Lactobacillus acidophilus in Milk fortified with MSM Day 14, initial start data",0.5% MSM,4.22 logs
same,"Recovery of Lactobacillus acidophilus in Milk fortified with MSM Day 14, average recovery","0.5% MSM, Day 14-24",10.15 logs
same,Lag Recovery of Lactobacillus acidophilus in Milk fortified with MSM Day 14,"0.5% MSM, Day 14-24",10.19 logs and 10.10 logs
same,"Recovery of Lactobacillus acidophilus in Milk fortified with MSM Day 14, average recovery","0.5% MSM, Day 14-48",12.84 logs
same,Lag Recovery of Lactobacillus acidophilus in Milk fortified with MSM Day 14,"0.5% MSM, Day 14-48",12.95 logs and 12.72 logs
same,"Recovery of Lactobacillus acidophilus in Milk fortified with MSM Day 14, average recovery","0.5% MSM, Day 14-72",12.86 logs
same,Lag Recovery of Lactobacillus acidophilus in Milk fortified with MSM Day 14,"0.5% MSM, Day 14-72",13.02 logs and 12.70 logs
same,"Recovery of Lactobacillus acidophilus in Milk fortified with MSM Day 21, initial start data",0.5% MSM,3.37 logs
same,"Recovery of Lactobacillus acidophilus in Milk fortified with MSM Day 21, average recovery","0.5% MSM, Day 21-24",12.91 logs
same,Lag Recovery of Lactobacillus acidophilus in Milk fortified with MSM Day 21,"0.50% MSM, Day 21-24",12.89 logs and 12.93 logs
same,"Recovery of Lactobacillus acidophilus in Milk fortified with MSM Day 21, average recovery","0.5% MSM, Day 21-48",13.02 logs
same,Lag Recovery of Lactobacillus acidophilus in Milk fortified with MSM Day 21,"0.50% MSM, Day 21-48",12.94 logs and 13.1 logs
same,"Recovery of Lactobacillus acidophilus in Milk fortified with MSM Day 21, average recovery","0.5% MSM, Day 21-72",11.30 logs
same,Lag Recovery of Lactobacillus acidophilus in Milk fortified with MSM Day 21,"0.50% MSM, Day 21-72",12.29 logs and 10.31 logs
same,"Recovery of Lactobacillus acidophilus in Milk fortified with MSM Day 28, initial start data",0.5% MSM,1.00 logs
same,"Recovery of Lactobacillus acidophilus in Milk fortified with MSM Day 28, average recovery","0.5% MSM, Day 28-24",6.29 logs
same,Lag Recovery of Lactobacillus acidophilus in Milk fortified with MSM Day 28,"0.50% MSM, Day 28-24",6.11 logs and 6.47 logs
same,"Recovery of Lactobacillus acidophilus in Milk fortified with MSM Day 28, average recovery","0.5% MSM, Day 28-48",13.33 logs
same,Lag Recovery of Lactobacillus acidophilus in Milk fortified with MSM Day 28,"0.50% MSM, Day 28-48",13.66 logs and 12.99 logs
same,"Recovery of Lactobacillus acidophilus in Milk fortified with MSM Day 28, average recovery","0.5% MSM, Day 28-72",13.00 logs
same,Lag Recovery of Lactobacillus acidophilus in Milk fortified with MSM Day 28,"0.50% MSM, Day 28-72",12.99 logs and 13.01 logs
same,Day 7 log recovery growth rate increase from start time of zero,"0.5% MSM, Hour 0",0.00 logs
same,Day 14 log recovery growth rate increase from start time of zero,"0.5% MSM, Hour 0",0.00 logs
same,Day 21 log recovery growth rate increase from start time of zero,"0.5% MSM, Hour 0",0.00 logs
same,Day 7 log recovery growth rate increase from start time of zero,"0.5% MSM, Hour 24",4.26 logs
same,Day 14 log recovery growth rate increase from start time of zero,"0.5% MSM, Hour 24",5.93 logs
same,Day 21 log recovery growth rate increase from start time of zero,"0.5% MSM, Hour 24",9.54 logs
same,Day 7 log recovery growth rate increase from start time of zero,"0.5% MSM, Hour 48",−0.26 logs
same,Day 14 log recovery growth rate increase from start time of zero,"0.5% MSM, Hour 48",2.69 logs
same,Day 21 log recovery growth rate increase from start time of zero,"0.5% MSM, Hour 48",0.11 logs
same,Day 7 log recovery growth rate increase from start time of zero,"0.5% MSM, Hour 72",0.39 logs
same,Day 14 log recovery growth rate increase from start time of zero,"0.5% MSM, Hour 72",0.03 logs
same,Day 21 log recovery growth rate increase from start time of zero,"0.5% MSM, Hour 72",−1.72 logs
same,Day 28 log recovery growth rate increase from start time of zero,"0.5% MSM, Time 0",0.00 logs
same,Day 28 log recovery growth rate increase from start time of zero,"0.5% MSM, Time 24",5.29 logs
same,Day 28 log recovery growth rate increase from start time of zero,"0.5% MSM, Time 48",7.04 logs
same,Day 28 log recovery growth rate increase from start time of zero,"0.5% MSM, Time 72",−0.32 logs
same,"Recovery of Lactobacillus acidophilus in Milk fortified with MSM Day 7, initial start data",5.0% MSM,8.71 logs
same,"Recovery of Lactobacillus acidophilus in Milk fortified with MSM Day 7, average recovery","5.0% MSM, Day 7-24",12.71 logs
same,Lag Recovery of Lactobacillus acidophilus in Milk fortified with MSM Day 7,Day 7-24,12.12 logs and 13.29 logs
same,"Recovery of Lactobacillus acidophilus in Milk fortified with MSM Day 7, average recovery","5.0% MSM, Day 7-48",13.17 logs
same,Lag Recovery of Lactobacillus acidophilus in Milk fortified with MSM Day 7,Day 7-48,13.09 logs and 13.25 logs
same,"Recovery of Lactobacillus acidophilus in Milk fortified with MSM Day 7, average recovery","5.0% MSM, Day 7-72",12.99 logs
same,Lag Recovery of Lactobacillus acidophilus in Milk fortified with MSM Day 7,Day 7-72,13.1 logs and 12.87 logs
same,recovery log growth lower than the control,"5.0% MSM, Day 14, first 24 hours",1.02 logs
same,"Recovery of Lactobacillus acidophilus in Milk fortified with MSM Day 14, initial start data",5.0% MSM,6.04 logs
same,"Recovery of Lactobacillus acidophilus in Milk fortified with MSM Day 14, average recovery","5.0% MSM, Day 14-24",9.60 logs
same,Lag Recovery of Lactobacillus acidophilus in Milk fortified with MSM Day 14,"5.0% MSM, Day 14-24",9.6 logs
same,"Recovery of Lactobacillus acidophilus in Milk fortified with MSM Day 14, average recovery","5.0% MSM, Day 14-48",13.02 logs
same,Lag Recovery of Lactobacillus acidophilus in Milk fortified with MSM Day 14,"5.0% MSM, Day 14-48",12.99 logs and 13.04 logs
same,"Recovery of Lactobacillus acidophilus in Milk fortified with MSM Day 14, average recovery","5.0% MSM, Day 14-72",12.43 logs
same,Lag Recovery of Lactobacillus acidophilus in Milk fortified with MSM Day 14,"5.0% MSM, Day 14-72",12.65 logs and 12.21 logs
same,"Recovery of Lactobacillus acidophilus in Milk fortified with MSM Day 21, initial start data",5.0% MSM,3.56 logs
same,"Recovery of Lactobacillus acidophilus in Milk fortified with MSM Day 21, average recovery","5.0% MSM, Day 21-24",9.69 logs
same,"Recovery of Lactobacillus acidophilus in Milk fortified with MSM Day 21, average recovery","5.0% MSM, Day 21-48",13.08 logs
same,"Recovery of Lactobacillus acidophilus in Milk fortified with MSM Day 21, average recovery","5.0% MSM, Day 21-72",13.15 logs
same,"Recovery of Lactobacillus acidophilus in Milk fortified with MSM Day 28, initial start data",5.0% MSM,0.52 logs
same,"Recovery of Lactobacillus acidophilus in Milk fortified with MSM Day 28, average recovery","5.0% MSM, Day 28-24",5.56 logs
same,Lag Recovery of Lactobacillus acidophilus in Milk fortified with MSM Day 28,"5.0% MSM, Day 28-24",5.64 logs and 5.48 logs
same,"Recovery of Lactobacillus acidophilus in Milk fortified with MSM Day 28, average recovery","5.0% MSM, Day 28-48",12.87 logs
same,Lag Recovery of Lactobacillus acidophilus in Milk fortified with MSM Day 28,"5.0% MSM, Day 28-48",12.58 logs and 13.16 logs
same,"Recovery of Lactobacillus acidophilus in Milk fortified with MSM Day 28, average recovery","5.0% MSM, Day 28-72",12.48 logs
